Tested on: PANC-1 (human pancreatic cancer-derived cell line)
Assay: MTS assay on Panc-1 (human pancreas carcinoma cell line)
Format: cell-based
Settings: 144 h; for inhibition at 0.15625 µM: read-out: Growth inhibition (%) 0.15625 μM; for IC50: PANC-1, MTS method, cell survival 6 days after exposure, 4-parameter logistic fit; for inhibition at 0.3125 µM: read-out: Growth inhibition (%) 0.3125 μM; for inhibition at 1 µM: read-out: Growth inhibition (%) 1 μM
How it was run: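 Viability measured by MTS 6 days after treating human pancreatic carcinoma PANC-1 cells with compound serially diluted 2-fold in DMSO; absorbance 492–630 nm normalized to solvent control. Triplicate measurements averaged and fitted to a 4-parameter logistic curve.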

Structure (SMILES)	inhibition at 0.15625 µM (PANC-1, MTS, 6 days)	inhibition at 0.3125 µM (PANC-1, MTS, 6 days)	also measured
CNC(=O)CCCC#Cc1csc(/C=C/C(=O)N2O[C@H](CC(C)C)C(=O)N3[C@@H]2CN([C@H]2CCN(CCCCO)C2)C(=O)[C@@H]3CC(C)(C)C)n1 [ID-93, 6-(2-((E)-3-((3R, 6S, 9aS)-8-((S)-1-(4-hydroxybutyl)pyrrolidin-3-yl)-3-isobutyl-6-neopentyl-4,7-dioxohexahydropyrazino[2,1-c][1,2,4]oxadiazin-1(6H)-yl)-3-oxoprop-1-en-1-yl)thiazol-4-yl)—N-methylhex-5-ynamide]	37.4%	–	–
CC(C)C[C@H]1ON(C(=O)/C=C/c2nc(C#CC3CCOCC3)cs2)[C@H]2CN([C@@H]3CCN(CCCCO)C3)C(=O)[C@H](CC(C)(C)C)N2C1=O [ID-94, (3R,6S,9aS)-8-((R)-1-(4-hydroxybutyl)pyrrolidin-3-yl)-3-isobutyl-6-neopentyl-1-((E)-3-(4-((tetrahydro-2H-pyran-4-yl)ethynyl)thiazol-2-yl)acryloyl)tetrahydropyrazino[2,1-c] [1,2,4]oxadiazine-4,7-(3H,6H)-dione]	42.3%	–	–
CC(C)C[C@@H]1ON(C(=O)/C=C/c2nc3ccccc3s2)[C@@H]2CN([C@@H]3CCN(CCCCO)C3)C(=O)[C@H](CC(C)(C)C)N2C1=O [ID-95, (3S,6S,9aR)-1-((E)-3-(benzo[d]thiazol-2-yl)acryloyl)-8-((R)-1-(4-hydroxybutyl)pyrrolidin-3-yl)-3-isobutyl-6-neopentyltetrahydropyrazino[2,1-c][1,2,4]oxadiazine-4,7(3H,6H)-dione]	–	–	IC50: 1400 nM
CC(C)C[C@H]1CN(C(=O)/C=C/c2nc3ccccc3s2)[C@H]2CN([C@@H]3CCN(CCCCO)C3)C(=O)[C@H](CC(C)(C)C)N2C1=O [ID-96, (3S,6S,9aR)-1-((E)-3-(benzo[d]thiazol-2-yl)acryloyl)-8-((R)-1-(4-hydroxybutyl)pyrrolidin-3-yl)-3-isobutyl-6-neopentylhexahydro-4H-pyrazino[1,2-a]pyrimidine-4,7(6H)-dione]	–	-1.7%	inhibition at 10 µM (PANC-1, MTS, 6 days, 10 μM, read-out: Growth inhibition (%) 10 μM): 101%
CC(C)C[C@H]1ON(C(=O)/C=C/c2nc(C#CCOCCO)cs2)[C@H]2CN(C3CCN(C(C)C)CC3)C(=O)[C@H](CC(C)(C)C)N2C1=O [ID-97, (3R,6S,9aS)-1-((E)-3-(4-(3-(2-hydroxyethoxy)prop-1-yn-1-yl)thiazol-2-yl)acryloyl)-3-isobutyl-8-(1-isopropylpiperidin-4-yl)-6-neopentyltetrahydropyrazino[2,1-c][1,2,4]oxadiazine-4,7 (3H, 6H)-dione]	51%	–	IC50: 150 nM
CC(C)C[C@H]1ON(C(=O)/C=C/c2nc3cc(O)ccc3s2)[C@H]2CN(C3CCN(C(C)C)CC3)C(=O)[C@H](CC(C)(C)C)N2C1=O [ID-98, (3R,6S,9aS)-1-((E)-3-(5-hydroxybenzo[d]thiazol-2-yl)acryloyl)-3-isobutyl-8-(1-isopropylpiperidin-4-yl)-6-neopentyltetrahydropyrazino[2,1-c][1,2,4]oxadiazine-4,7(3H,6H)-dione]	61.7%	–	–
CC(C)N1CCC(N2C[C@@H]3N(C(=O)/C=C/c4nc(C#CCCCCO)cs4)O[C@H](CC4CC4)C(=O)N3[C@@H](CC(C)(C)C)C2=O)CC1 [ID-99, (3R,6S,9aS)-3-(cyclopropylmethyl)-1-((E)-3-(4-(6-hydroxyhex-1-yn-1-yl)thiazol-2-yl)acryloyl)-8-(1-isopropylpiperidin-4-yl)-6-neopentyltetrahydropyrazino[2,1-c] [1,2,4]oxadiazine-4,7(3H,6H)-dione]	61.1%	–	–
C#Cc1sc(/C=C/C(=O)N2O[C@H](CC(C)C)C(=O)N3[C@@H]2CN(C2CCN(C(C)C)CC2)C(=O)[C@@H]3CC(C)(C)C)nc1C#CCCCO [ID-100, (3R,6S,9aS)-1-((E)-3-(5-ethynyl-4-(5-hydroxypent-1-yn-1-yl)thiazol-2-yl)acryloyl)-3-isobutyl-8-(1-isopropylpiperidin-4-yl)-6-neopentyltetrahydropyrazino[2,1-c][1,2,4]oxadiazine-4,7(3H,6H)-dione]	99.8%	–	–
CC(C)C[C@H]1ON(C(=O)/C=C/c2nc3cc(OCCCO)ccc3s2)[C@H]2CN(C3CCN(C(C)C)CC3)C(=O)[C@H](CC(C)(C)C)N2C1=O [ID-101, (3R,6S,9aS)-1-((E)-3-(5-(3-hydroxypropoxy)benzo[d]thiazol-2-yl)acryloyl)-3-isobutyl-8-(1-isopropylpiperidin-4-yl)-6-neopentyltetrahydropyrazino[2,1-c][1,2,4]oxadiazine-4,7(3H,6H)-dione]	65.6%	–	–
CC(C)C[C@H]1ON(C(=O)/C=C/c2nc(C#CCCCO)cs2)[C@H]2CN(C3CCN(C4CC4)CC3)C(=O)[C@H](CC(C)(C)C)N2C1=O [ID-102, (3R,6S,9aS)-8-(1-cyclopropylpiperidin-4-yl)-1-((E)-3-(4-(5-hydroxypent-1-yn-1-yl)thiazol-2-yl)acryloyl)-3-isobutyl-6-neopentyltetrahydropyrazino[2,1-c][1,2,4]oxadiazine-4,7(3H,6H)-dione]	36.9%	–	–
C#Cc1sc(/C=C/C(=O)N2O[C@H](CC(C)C)C(=O)N3[C@@H]2CN(C2CCN(C)CC2)C(=O)[C@@H]3CC(C)(C)C)nc1C#CCCCO [ID-103, (3R,6S,9aS)-1-((E)-3-(5-ethynyl-4-(5-hydroxypent-1-yn-1-yl)thiazol-2-yl)acryloyl)-3-isobutyl-8-(1-methylpiperidin-4-yl)-6-neopentyltetrahydropyrazino[2,1-c][1,2,4]oxadiazine-4,7 (3H, 6H)-dione]	–	99.6%	–
CC(C)(C)C[C@H]1C(=O)N([C@@H]2CCN(CCCCO)C2)C[C@@H]2N(C(=O)/C=C/c3nc4ccccc4s3)O[C@H](C[C@H]3C[C@@H]3CCc3ccccc3)C(=O)N21 [ID-104, (3R,6S,9aS)-1-((E)-3-(benzo[d]thiazol-2-yl)acryloyl)-8-((R)-1-(4-hydroxybutyl)pyrrolidin-3-yl)-6-neopentyl-3-(((1R,2S)-2-phenethylcyclopropyl)methyl)tetrahydropyrazino[2,1-c][1,2,4]oxadiazine-4,7(3H,6H)-dione]	–	30.1%	–
CC(C)(C)C[C@H]1C(=O)N([C@@H]2CCN(CCCCO)C2)C[C@@H]2N(C(=O)/C=C/c3cnc4ccccc4n3)O[C@H](CCCCNC(=O)OCc3ccccc3)C(=O)N21 [ID-105, benzyl (4-((3R,6S,9aS)-8-((R)-1-(4-hydroxybutyl)pyrrolidin-3-yl)-6-neopentyl-4,7-dioxo-1-((E)-3-(quinoxalin-2-yl)acryloyl)octahydropyrazino[2,1-c][1,2,4]oxadiazin-3-yl)butyl)carbamate]	–	–	inhibition at 30 µM (PANC-1, MTS, 6 days, 30 μM, read-out: Growth inhibition (%) 30 μM): 98.3%
CC(C)N1CCC(N2C[C@@H]3N(C(=O)/C=C/c4cnc5ccccc5n4)O[C@H](CC4CCCCC4)C(=O)N3[C@@H](CC(C)(C)C)C2=O)CC1 [ID-106, (3R,6S,9aS)-3-(cyclohexylmethyl)-8-(1-isopropylpiperidin-4-yl)-6-neopentyl-1-((E)-3-(quinoxalin-2-yl)acryloyl)tetrahydropyrazino[2,1-c][1,2,4]oxadiazine-4,7(3H,6H)-dione]	–	29.8%	inhibition at 1 µM (PANC-1, MTS, 6 days): 101%
CCC(CC)C[C@H]1ON(C(=O)/C=C/c2cnc3ccccc3n2)[C@H]2CN([C@@H]3CCN(CCCCO)C3)C(=O)[C@H](CC(C)(C)C)N2C1=O [ID-107, (3R, 6S, 9aS)-3-(2-ethylbutyl)-8-((R)-1-(4-hydroxybutyl)pyrrolidin-3-yl)-6-neopentyl-1-((E)-3-(quinoxalin-2-yl)acryloyl)tetrahydropyrazino[2,1-c][1,2,4]oxadiazine-4,7(3H,6H)-dione]	–	94.3%	IC50: 200 nM; inhibition at 1 µM (PANC-1, MTS, 6 days): 98.5%

From patent US20230265104A1, “NOVEL HETEROCYCLIC COMPOUNDS” (PRISM BIOLAB CO., LTD., priority 2020, published 2023)
